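Interpolation was linear, between the two tested concentrations surrounding the appropriate level; five concentrations were tested over 48 hours in 96-well plates. The concentration for 50% growth inhibition is given as GI50. At the TGI there is no net growth.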
Columns and labels:
Assay in all cases: DTP human tumour cell line panel, 48 h
KM12 colon = tested on: KM12 colon
UO-31 renal = tested on: UO-31 renal
CCRF-CEM leukemia = tested on: CCRF-CEM leukemia
NCI-H460 lung = tested on: NCI-H460 lung
HT29 colon = tested on: HT29 colon
UACC-257 melanoma = tested on: UACC-257 melanoma
OVCAR-8 ovarian = tested on: OVCAR-8 ovarian
A498 renal = tested on: A498 renal
DMS 114 small cell lung = tested on: DMS 114 small cell lung
DLD-1 colon = tested on: DLD-1 colon

## CCN(CCO)CC(C)Nc1ccc([N+](=O)[O-])c2sc3ccccc3c(=O)c12 (stereo unspecified)
KM12 colon
  GI50: 1.47 µM
  TGI: 4 µM
UO-31 renal
  GI50: 0.278 µM
  TGI: 1.65 µM
CCRF-CEM leukemia
  GI50: 1 µM
  TGI: 7.19 µM
NCI-H460 lung
  GI50: 0.379 µM
  TGI: 2.27 µM
HT29 colon
  GI50: 1.42 µM
  TGI: 3.62 µM
UACC-257 melanoma
  GI50: 1.47 µM
  TGI: 2.85 µM
OVCAR-8 ovarian
  GI50: 1.18 µM
  TGI: 4.19 µM
A498 renal
  GI50: 0.252 µM
  TGI: 9.54 µM

## CN(CC(N)=O)C(=O)N(CCCl)N=O
KM12 colon
  TGI: > 100 µM
UO-31 renal
  TGI: > 100 µM
CCRF-CEM leukemia
  TGI: > 100 µM
NCI-H460 lung
  TGI: > 100 µM
HT29 colon
  TGI: > 100 µM
UACC-257 melanoma
  TGI: > 100 µM
OVCAR-8 ovarian
  TGI: > 100 µM
A498 renal
  TGI: > 100 µM

## COC(=O)CC1NC(=O)C1C1(C)OCCO1 (stereo unspecified)
DMS 114 small cell lung
  TGI: > 100 µM
UO-31 renal
  TGI: > 100 µM
NCI-H460 lung
  TGI: > 100 µM
HT29 colon
  TGI: > 100 µM
UACC-257 melanoma
  TGI: > 100 µM
DLD-1 colon
  TGI: > 100 µM
OVCAR-8 ovarian
  TGI: > 100 µM
A498 renal
  TGI: > 100 µM

## COC1O[C@@H]2C[C@H]3C(C)(C)CCC[C@]3(C)C3=CCCC1[C@@]32C (stereo partly specified)
KM12 colon
  GI50: > 100 µM
  TGI: > 100 µM
UO-31 renal
  GI50: > 100 µM
  TGI: > 100 µM
CCRF-CEM leukemia
  GI50: > 100 µM
  TGI: > 100 µM
NCI-H460 lung
  GI50: > 100 µM
  TGI: > 100 µM
HT29 colon
  GI50: > 100 µM
  TGI: > 100 µM
UACC-257 melanoma
  GI50: > 100 µM
  TGI: > 100 µM
OVCAR-8 ovarian
  GI50: > 100 µM
  TGI: > 100 µM
A498 renal
  GI50: > 100 µM
  TGI: > 100 µM

## Cc1c(C2=C(c3cn(C)c4ccccc34)C(=O)NC2=O)c2ccccc2n1C
KM12 colon
  GI50: 3.87 µM
  TGI: > 25 µM
UO-31 renal
  GI50: 1.74 µM
  TGI: > 25 µM
CCRF-CEM leukemia
  GI50: 1.47 µM
  TGI: > 25 µM
NCI-H460 lung
  GI50: 1.29 µM
  TGI: > 25 µM
HT29 colon
  GI50: 1.12 µM
  TGI: > 25 µM
UACC-257 melanoma
  GI50: > 25 µM
  TGI: > 25 µM
OVCAR-8 ovarian
  GI50: 10.8 µM
  TGI: > 25 µM
A498 renal
  GI50: 1.91 µM
  TGI: 11.2 µM

## Cc1cc(N(CCC#N)CCC#N)ccc1/C=C1/N=C(c2ccccc2)N(N)C1=O
KM12 colon
  TGI: > 100 µM
DMS 114 small cell lung
  TGI: > 100 µM
UO-31 renal
  TGI: > 100 µM
CCRF-CEM leukemia
  TGI: > 100 µM
HT29 colon
  TGI: > 100 µM
UACC-257 melanoma
  TGI: > 100 µM
DLD-1 colon
  TGI: > 100 µM
OVCAR-8 ovarian
  TGI: > 100 µM
A498 renal
  TGI: > 100 µM

## N#Cc1c(N)[nH]c2ccc(Sc3ccccc3)cc12
KM12 colon
  TGI: 10.7 µM
UO-31 renal
  TGI: 13.9 µM
CCRF-CEM leukemia
  TGI: 13.8 µM
NCI-H460 lung
  TGI: 21.6 µM
HT29 colon
  TGI: 9.01 µM
UACC-257 melanoma
  TGI: 29.5 µM
OVCAR-8 ovarian
  TGI: 12 µM
A498 renal
  TGI: 2.04 µM

## Cn1cc(-c2nonc2-c2cn(C)c3ccccc23)c2ccccc21
KM12 colon
  GI50: 0.661 µM
  TGI: > 100 µM
UO-31 renal
  GI50: 0.972 µM
  TGI: > 100 µM
CCRF-CEM leukemia
  GI50: 0.703 µM
  TGI: > 100 µM
NCI-H460 lung
  GI50: 0.579 µM
  TGI: > 100 µM
HT29 colon
  GI50: 0.519 µM
  TGI: > 100 µM
UACC-257 melanoma
  GI50: 50.4 µM
  TGI: > 100 µM
OVCAR-8 ovarian
  GI50: 1.5 µM
  TGI: > 100 µM
A498 renal
  GI50: 0.337 µM

## C[C@@H]1O[C@@H](O[C@H]2CC[C@@]3(C)[C@H](CCC4[C@@H]3C(O)C[C@]3(C)[C@@H](c5ccc(=O)oc5)CC[C@]43O)C2)[C@H](O)[C@H](O)[C@H]1O (stereo partly specified)
KM12 colon
  GI50: 0.00696 µM
  TGI: 0.0157 µM
UO-31 renal
  GI50: 0.00577 µM
  TGI: 0.015 µM
CCRF-CEM leukemia
  GI50: < 0.00325 µM
  TGI: 0.0076 µM
NCI-H460 lung
  GI50: < 0.00325 µM
  TGI: 0.00509 µM
HT29 colon
  GI50: 0.00481 µM
  TGI: 0.00975 µM
UACC-257 melanoma
  GI50: 0.00589 µM
  TGI: 0.0121 µM
OVCAR-8 ovarian
  GI50: 0.00415 µM
  TGI: 0.00801 µM
A498 renal
  GI50: 0.00859 µM
  TGI: 0.0357 µM

## CC1(C)C2CCC13CS(=O)(=O)N1O[C@]13C(=O)O2 (stereo partly specified)
KM12 colon
  TGI: > 100 µM
DMS 114 small cell lung
  TGI: > 100 µM
UO-31 renal
  TGI: > 100 µM
NCI-H460 lung
  TGI: > 100 µM
HT29 colon
  TGI: > 100 µM
UACC-257 melanoma
  TGI: > 100 µM
DLD-1 colon
  TGI: > 100 µM
OVCAR-8 ovarian
  TGI: > 100 µM
A498 renal
  TGI: > 100 µM

## CCCCCn1sc(=O)n(Cc2ccc(CNC(=O)OCc3ccc4cccc(O)c4n3)cc2)c1=O
KM12 colon
  GI50: 2.78 µM
  TGI: 8.91 µM
UO-31 renal
  GI50: 1.07 µM
  TGI: 2.25 µM
CCRF-CEM leukemia
  GI50: 0.489 µM
  TGI: > 100 µM
NCI-H460 lung
  GI50: 1.8 µM
  TGI: 3.78 µM
HT29 colon
  GI50: 1.89 µM
  TGI: 3.35 µM
UACC-257 melanoma
  GI50: 1.57 µM
  TGI: 3.08 µM
OVCAR-8 ovarian
  GI50: 1.85 µM
  TGI: 9.89 µM
A498 renal
  GI50: 1.73 µM
  TGI: 4.58 µM

## N/N=C1\CC(=O)NC(=O)N1
KM12 colon
  TGI: > 100 µM
UO-31 renal
  TGI: > 100 µM
CCRF-CEM leukemia
  TGI: > 100 µM
NCI-H460 lung
  TGI: > 100 µM
HT29 colon
  TGI: > 100 µM
UACC-257 melanoma
  TGI: > 100 µM
OVCAR-8 ovarian
  TGI: > 100 µM
A498 renal
  TGI: > 100 µM

## Cc1cc2c(c(C(=O)O)c1C)-c1cccc(F)c1C2=O
KM12 colon
  TGI: > 100 µM
DMS 114 small cell lung
  TGI: > 100 µM
UO-31 renal
  TGI: 66.1 µM
CCRF-CEM leukemia
  TGI: > 100 µM
NCI-H460 lung
  TGI: > 100 µM
HT29 colon
  TGI: > 100 µM
UACC-257 melanoma
  TGI: > 100 µM
DLD-1 colon
  TGI: > 100 µM
OVCAR-8 ovarian
  TGI: > 100 µM

## COc1cc2c(c(OC)c1OC)-c1ccc(SC)c(=O)cc1[C@@H](NC1OC(CO)C(O)C(O)C1O)CC2 (stereo partly specified)
KM12 colon
  GI50: 0.024 µM
UO-31 renal
  GI50: 0.0864 µM
  TGI: > 100 µM
CCRF-CEM leukemia
  GI50: 0.0382 µM
  TGI: > 100 µM
NCI-H460 lung
  GI50: 0.0332 µM
  TGI: > 100 µM
HT29 colon
  GI50: 0.028 µM
  TGI: 0.0794 µM
UACC-257 melanoma
  GI50: 0.447 µM
  TGI: > 100 µM
OVCAR-8 ovarian
  GI50: 0.0387 µM
  TGI: > 100 µM
A498 renal
  GI50: 0.0135 µM
  TGI: 0.0674 µM

## CCn1c2ccccc2c2cc(/C=C(/C#N)C(N)=O)ccc21
KM12 colon
  GI50: 13.5 µM
  TGI: > 100 µM
UO-31 renal
  GI50: 11.7 µM
  TGI: > 29.6 µM
CCRF-CEM leukemia
  GI50: 13.2 µM
  TGI: > 100 µM
NCI-H460 lung
  GI50: 1.67 µM
  TGI: 13.3 µM
HT29 colon
  GI50: 5.18 µM
  TGI: > 100 µM
UACC-257 melanoma
  GI50: 4.18 µM
  TGI: 15.8 µM
OVCAR-8 ovarian
  GI50: 42.6 µM
  TGI: > 100 µM
A498 renal
  GI50: 0.188 µM
  TGI: 0.559 µM

## Cc1ccc(S(=O)OC2C3CC4CC(C3)CC2C4)cc1 (stereo unspecified)
KM12 colon
  TGI: > 100 µM
DMS 114 small cell lung
  TGI: > 100 µM
UO-31 renal
  TGI: > 100 µM
NCI-H460 lung
  TGI: > 100 µM
HT29 colon
  TGI: > 100 µM
UACC-257 melanoma
  TGI: > 100 µM
DLD-1 colon
  TGI: > 100 µM
OVCAR-8 ovarian
  TGI: > 100 µM
A498 renal
  TGI: > 100 µM

## CN1CCN(Cc2ccc(NC(=O)c3[nH]ncc3Nc3ncnc4sc5c(c34)CCCC5)cc2)CC1
KM12 colon
  GI50: 0.222 µM
  TGI: 1.29 µM
UO-31 renal
  GI50: 0.356 µM
  TGI: 1.75 µM
CCRF-CEM leukemia
  GI50: 0.179 µM
  TGI: 0.823 µM
NCI-H460 lung
  GI50: 0.136 µM
  TGI: 1.05 µM
HT29 colon
  GI50: 0.234 µM
  TGI: 1.92 µM
UACC-257 melanoma
  GI50: 1.21 µM
  TGI: 3.29 µM
OVCAR-8 ovarian
  GI50: 0.413 µM
  TGI: 2.52 µM
A498 renal
  GI50: 0.0865 µM
  TGI: 0.668 µM

## CC(=O)Oc1ccccc1C(=O)/C=C/c1cccc([N+](=O)[O-])c1
KM12 colon
  GI50: 2.4 µM
  TGI: 6.23 µM
UO-31 renal
  GI50: 1.52 µM
  TGI: 2.96 µM
CCRF-CEM leukemia
  GI50: 3.06 µM
  TGI: > 100 µM
NCI-H460 lung
  GI50: 2.4 µM
  TGI: 9.4 µM
HT29 colon
  GI50: 2.36 µM
  TGI: 4.92 µM
UACC-257 melanoma
  GI50: 6.99 µM
  TGI: 20.8 µM
OVCAR-8 ovarian
  GI50: 3.11 µM
  TGI: 10.4 µM
A498 renal
  GI50: 2.54 µM
  TGI: 17.6 µM
